Experimental findings from US20250236596A1, “HYDROXYLAMINE-BASED EGFR INHIBITORS FOR TREATMENT OF CANCER WITH BRAIN METASTASES” (University of Georgia Research Foundation, Inc., priority 2022, published 2025) are described below.

pIC50: −log10 of the molar value. A value given as a limit tells only on which side of the number the result lay.

The test system of series [1] is NCI-H3255 NSCLC cell line (EGFR L858R). As to the kind of experiment: CellTiter-Glo viability assay, NCI-H3255. Conditions: Homo sapiens, 72 h, read-out: antiproliferative IC50. Format: cell-based. The protocol:
(§1) The A431, HCC827, SK-BR-3, ZR-75-30, AU565 and Caco-2 cell lines were obtained from ATCC. The NCI-H1975 cell line was obtained from SIBS. The NCI-H3255 cell line was obtained from CoBioer. Engineered Ba/F3 cell lines were obtained from Crown Bioscience. MCKII-MDR1 cells were obtained from the Netherlands Cancer Institute. HEK293 cells were obtained from Invitrogen. A431 cells were cultured in DMEM (Life Technologies) with 10% FBS. HCC827, NCI-H1975 and AU565 cells were cultured in RPMI1640 (Invitrogen) with 10% FBS. NCI-H3255 cells were cultured in BEGM (Lonza) with 10% FBS. Ba/F3 EGFR-del E746_A750/C797S and Ba/F3 EGFR-L858R/C797S cells were cultured in RPMI (Invitrogen) with 10% FBS. SK-BR-3 cells were cultured in McCoy's 5a (Invitrogen) with 10% FBS. ZR-75-30 cells were cultured in RPMI1640 (Invitrogen) with 20% FBS. BT474 cells were cultured in DMEM (Gibco) with 10% FBS and 10 μg/mL Insulin. Caco-2 and MCKII-MDR1 culture information is given in the permeability studies section. […]
(§2) Viability assays using A431, HCC827, NCI-H1975, NCI-H3255, Ba/F3 EGFR-del E746_A750/C797S, Ba/F3 EGFR-L858R/C797S, AU565, SK-BR-3 and ZR-75-30 cells were performed at Crown BioScience. […] Dose-response curves were generated and used to calculate the IC50 values which were calculated on GraphPad Prism from the non-linear regression equation fitted with a sigmoidal dose response and are presented as the mean±SEM.
For orientation: ATP-based viability assays read luminescence as a measure of living cells.

In series [2] the test system is HCC827 NSCLC cells (EGFR del E746_A750). Briefly: CellTiter-Glo viability assay, HCC827. It counts as cell-based. Particulars: Homo sapiens; HCC827, EGFR del E746_A750, 72 h; read-out: antiproliferative IC50. As for the experimental part: as §1, §2
For another series, the target named is CYP1A2 (Homo sapiens, UniProt P05177). Briefly: Human CYP450 inhibition in human liver microsomes, CYP1A2. It counts as in vitro ADME. Particulars: pooled human liver microsomes, probe phenacetin (40 μM), O-demethylation. The protocol:
Assessment of compound 15 was carried out at Pharmaron Inc. for its potential to inhibit cytochrome P450 (CYP) isoforms using human liver microsomes. The activities tested were CYP1A2-mediated phenacetin O-demethylation, CYP2C19-mediated (S)-mephenytoin 4′-hydroxylation, CYP2C9-mediated diclofenac 4′-hydroxylation, CYP2D6-mediated dextromethorphan O-demethylation and CYP3A4-mediated midazolam 1′-hydroxylation. Concentrations of substrates were phenacetin (40 μM), mephenytoin (50 μM), diclofenac (6 μM), dextromethorphan (2 μM) and midazolam (1 μM). Probe substrates phenacetin, mephenytoin and dextromethorphan were incubated at 37° for 20 min. Probe substrates diclofenac and midazolam were incubated at 37° for 5 min. […] The reactions were initiated by adding NADPH (1 mM final concentration) after a 5 min-preincubation and the assay was ran in duplicate (n=2). Samples were analyzed by UPLC-MS/MS.
In general terms: Liver microsomes are a subcellular fraction often used to study metabolism.

Series [3] deals with HCC827-luc intracranial tumor. As to the kind of experiment: Intracranial PDX model with luciferase-tagged HCC827 cells. Format: in vivo, BALB/c nude mice. Particulars: 10 mg/kg PO b.i.d. As for the experimental part:
Animal experiments were performed at Pharmaron Inc. and animal use was approved by Pharmaron's Institutional Animal Care and Use Committee (IACUC) in Pharmaron (Pharmaron IACUC, Protocol #PK-M-07182022, #PK-R-06012022 and #ON-CELL-XEN-06012022) following the guidance of AAALAC. Six- to eight-week-old male SD rats (approximately 200-300 g) obtained from Si Bei Fu Laboratory Animal Technology Co., six- to eight-week-old male CD1 mice (approximately 20-30 g) obtained from Si Bei Fu Laboratory Animal Technology Co., and six- to eight-week-old female BALB/c nude mice (approximately 20-30 g) obtained from Si Bei Fu Laboratory Animal Technology Co., were used in the pharmacokinetic studies. Six- to eight-week-old female BALB/c nude mice (approximately 18-22 g) obtained from Beijing Anikeeper Biotech Co., Ltd were used in the intracranial PDX study. Animals were housed at 20-25° C. with humidity ranging from 40-70% relative humidity, were exposed to 12 h light and dark cycles, and were supplied with food and water ab libitum.
HCC827 cells stably expressing luciferase (HCC827-luc) were injected intracranially. Briefly, 3×10^5 HCC827-luc tumor cells suspended in 2 μL RPMI1640 medium were injected into the right forebrain of anesthetized mice (anesthetic: intramuscular injection of Zoletl™ 50 (Virbac S.A)). Mice were imaged bi-weekly using IVIS Lumina Ill (Perkin Elmer). Images were acquired 10 min post intraperitoneal (IP) injection with 15 mg/mL (at 5 μL/g body weight) of D-luciferin in anesthetized mice (anesthetic: 1-2% isoflurane inhalation). On day 20 post-cellular inoculation, mice were randomized into 2 treatment groups (n=10 mice per group): 1) 1% methylcellulose as vehicle control and 2) 15 (10 mg/kg) (formulation: 1% methylcellulose), PO, b.i.d. (twice daily) dosing (12 h intervals)×7 days for 21 days. […] Body weights of all mice were measured bi-weekly throughout the study and BW change, expressed in % was calculated using the following formula.
BW change (%)=(BWDay X/BWDay 0)×100
Where, BWDay X is the BW on a given day, and BWDay 0 is BW on Day 0 (initiation of treatment). […]

Sequence of CYP1A2 (P05177 whole entry, canonical isoform): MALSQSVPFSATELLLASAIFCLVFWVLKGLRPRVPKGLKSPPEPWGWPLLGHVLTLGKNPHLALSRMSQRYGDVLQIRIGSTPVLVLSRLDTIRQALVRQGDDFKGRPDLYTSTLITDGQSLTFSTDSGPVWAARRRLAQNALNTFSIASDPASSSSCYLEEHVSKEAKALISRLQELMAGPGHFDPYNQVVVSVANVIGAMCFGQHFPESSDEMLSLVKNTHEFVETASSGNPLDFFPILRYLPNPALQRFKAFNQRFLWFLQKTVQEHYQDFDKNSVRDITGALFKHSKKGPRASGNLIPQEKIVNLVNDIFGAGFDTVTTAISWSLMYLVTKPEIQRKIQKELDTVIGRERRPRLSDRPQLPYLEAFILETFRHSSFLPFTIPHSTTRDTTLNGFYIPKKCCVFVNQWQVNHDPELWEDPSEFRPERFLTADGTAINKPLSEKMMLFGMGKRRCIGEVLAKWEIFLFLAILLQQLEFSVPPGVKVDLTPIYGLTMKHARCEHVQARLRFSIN

For `COc1cc2ncnc(Nc3cccc(Cl)c3F)c2cc1OCCON1CCN(C)CC1` [Compound 15, N-(3-chloro-2-fluorophenyl)-7-methoxy-6-(2-((4-methylpiperazin-1-yl)oxy)ethoxy)quinazolin-4-amine], the negative logarithm of the IC50 (pIC50) (in general, the IC50 on a negative log10 scale, so that one unit is a factor of ten) is 8.14 in series [1] and 8.51 in series [2]. Further, the IC50 – broadly, the concentration that gives 50% inhibition – at 20 min at CYP1A2 was over 30000 nM. Moreover, in series [3] (21-day treatment window), the “mean body weight loss” value is recorded as at most 10%. Moreover, the adverse clinical events entry in series [3] (21 days) was “no adverse clinical events”. Moreover, in series [3] (21 days, P=0.0059), the “intracranial tumor response (bioluminescence) relative to vehicle control” value is on record as “profound tumor regression”.
